Drawing on patent publication US10961198B2, “Farnesoid X receptor agonists and uses thereof” (Metacrine, Inc., priority 2017, dated 2021), this text covers EC50 for 20 molecules.

The assay deals with hFXR (Homo sapiens (Human), UniProt Q96RI1). The assay can be described thus: In Vitro FXR Assay (TK). The format is cell-based. The settings on record: CV-1 cells transfected with hFXR, hRXR, TK-ECRE-luc and pCMX-YFP; incubated 18 hrs; luminescence; maximum efficacy <25% of the Fexarmine control classified as '+'. As to the method: Example B-1: In Vitro FXR Assay (TK)
Chain of hFXR (Q96RI1 whole entry): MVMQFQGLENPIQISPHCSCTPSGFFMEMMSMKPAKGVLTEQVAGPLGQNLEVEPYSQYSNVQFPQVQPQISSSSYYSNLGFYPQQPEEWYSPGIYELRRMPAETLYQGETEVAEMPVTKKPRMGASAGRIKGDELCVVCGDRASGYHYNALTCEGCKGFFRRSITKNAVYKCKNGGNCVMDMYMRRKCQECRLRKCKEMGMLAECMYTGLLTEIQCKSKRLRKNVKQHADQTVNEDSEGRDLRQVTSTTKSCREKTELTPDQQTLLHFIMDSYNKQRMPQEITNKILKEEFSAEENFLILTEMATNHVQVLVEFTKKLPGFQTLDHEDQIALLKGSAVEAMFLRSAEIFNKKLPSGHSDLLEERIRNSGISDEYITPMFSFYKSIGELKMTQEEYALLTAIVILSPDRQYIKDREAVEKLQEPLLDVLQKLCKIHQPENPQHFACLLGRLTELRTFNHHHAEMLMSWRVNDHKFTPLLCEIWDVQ
Chain of hFXR (P19793 whole entry partner): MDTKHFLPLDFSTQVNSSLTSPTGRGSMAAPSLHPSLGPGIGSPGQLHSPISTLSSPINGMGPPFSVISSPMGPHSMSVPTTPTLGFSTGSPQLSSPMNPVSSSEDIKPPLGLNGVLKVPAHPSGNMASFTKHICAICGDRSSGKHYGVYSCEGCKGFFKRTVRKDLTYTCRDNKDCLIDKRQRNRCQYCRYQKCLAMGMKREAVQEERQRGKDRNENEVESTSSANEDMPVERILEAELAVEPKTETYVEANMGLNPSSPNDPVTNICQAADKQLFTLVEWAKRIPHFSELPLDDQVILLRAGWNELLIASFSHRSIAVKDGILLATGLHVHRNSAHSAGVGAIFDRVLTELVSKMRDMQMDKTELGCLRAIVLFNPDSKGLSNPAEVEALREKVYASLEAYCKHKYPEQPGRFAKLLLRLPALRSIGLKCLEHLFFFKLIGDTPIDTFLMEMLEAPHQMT
CV-1 cells were seeded at a density of 2,000,000 cells in a T175 flask with DMEM+10% charcoal double-stripped FBS and incubated at 37° C. in 5% CO2 for 18 h (O/N).
After 18 h of incubation, the medium in the T175 flask was changed with fresh DMEM+10% charcoal super-stripped serum. In a polypropylene tube, 2500 μL OptiMEM (Life Technologies, Cat #31985-062) was combined with expression plasmids for hFXR, hRXR, TK-ECRE-luc and pCMX-YFP. The tube was then briefly vortexed and incubated at room temperature for 5 minutes. Transfection reagent (X-tremeGENE HP from Roche, Cat #06 366 236 001) was added to the OptiMEM/plasmid mixture vortexed and incubated at room temperature for 20 minutes. Following incubation, the transfection reagent/DNA mixture complex was added to cells in the T175 flask and the cells were incubated at 37° C. in 5% CO2 for 18 h (O/N).
Compounds were serially diluted in DMSO and added to transfected CV-1 cells. The cells were then incubated for 18 hrs. The next day cells were lysed and examined for luminescence.

pEC50: −log10 of the molar value. Some results are limits rather than exact numbers.

Take `COc1ccc([C@H]2CC[C@H](CN(c3cc(-c4cnn(C(C)C)c4)ccn3)C(=O)[C@H]3CC[C@H](O)CC3)CC2)nc1C` [Compound 5.19, trans-4-Hydroxy-N-(4-(1-isopropyl-1H-pyrazol-4-yl)pyridin-2-yl)-N-((trans-4-(5-methoxy-6-methylpyridin-2-yl)cyclohexyl)methyl)cyclohexanecarboxamide]: the pEC50 is at least 6.60. On to `COc1cnc([C@H]2CC[C@H](CN(c3cccc(-c4cnn(C5CC5)c4)c3)C(=O)[C@H]3CC[C@H](O)CC3)CC2)cc1C` [Compound 5.18, trans-N-(3-(1-Cyclopropyl-1H-pyrazol-4-yl)phenyl)-4-hydroxy-N-((trans-4-(5-methoxy-4-methylpyridin-2-yl)cyclohexyl)methyl)cyclohexanecarboxamide], for which the pEC50 was 6.00 to 6.60. To `COc1ncc([C@H]2CC[C@H](CN(c3cccc(-c4cnn(C5CC5)c4)c3)C(=O)[C@H]3CC[C@H](O)CC3)CC2)cc1Cl` [Compound 5.10, trans-N-((trans-4-(5-chloro-6-methoxypyridin-3-yl)cyclohexyl)methyl)-N-(3-(1-cyclopropyl-1H-pyrazol-4-yl)phenyl)-4-hydroxycyclohexanecarboxamide] belongs at least 6.60. With `COc1ncc([C@H]2CC[C@H](CN(c3cc(-c4cnn(C(C)C)c4)ccn3)C(=O)[C@H]3CC[C@H](O)CC3)CC2)cc1Cl` [Compound 5.30, trans-N-((trans-4-(5-Chloro-6-methoxypyridin-3-yl)cyclohexyl)methyl)-4-hydroxy-N-(4-(1-isopropyl-1H-pyrazol-4-yl)pyridin-2-yl)cyclohexanecarboxamide], the pEC50 is at least 6.60. Then `CCn1cc([C@H]2CC[C@H](CN(c3cccc(-c4cnn(C5CC5)c4)c3)C(=O)[C@H]3CC[C@H](O)CC3)CC2)cn1` [Compound 5.16, trans-N-(3-(1-Cyclopropyl-1H-pyrazol-4-yl)phenyl)-N-((trans-4-(1-ethyl-1H-pyrazol-4-yl)cyclohexyl)methyl)-4-hydroxycyclohexanecarboxamide], with 6.00 to 6.60. As to `COc1ccc([C@H]2CC[C@H](CN(c3cccc(-c4cnn(C(F)F)c4)c3)C(=O)[C@H]3CC[C@H](O)CC3)CC2)cc1C` [Compound 3.11, trans-N-(3-(1-(Difluoromethyl)-1H-pyrazol-4-yl)phenyl)-4-hydroxy-N-((trans-4-(4-methoxy-3-methylphenyl)cyclohexyl)methyl)cyclohexanecarboxamide], the pEC50 was at least 6.60. For `CCn1cc(-c2cccc(N(C[C@H]3CC[C@H](c4ccc(OC)c(C#N)c4)CC3)C(=O)[C@H]3CC[C@H](O)CC3)c2)cn1` [Compound 2, trans-N-((trans-4-(3-Cyano-4-methoxyphenyl)cyclohexyl)methyl)-N-(3-(1-ethyl-1H-pyrazol-4-yl)phenyl)-4-hydroxycyclohexanecarboxamide], the pEC50 was at least 6.60.

`COc1ccc([C@H]2CC[C@H](CN(c3cccc(-c4cnn(C5CC5)c4)c3)C(=O)[C@H]3CC[C@H](O)CC3)CC2)nc1C#N` [Compound 5.05, trans-N-((trans-4-(6-Cyano-5-methoxypyridin-2-yl)cyclohexyl)methyl)-N-(3-(1-cyclopropyl-1H-pyrazol-4-yl)phenyl)-4-hydroxycyclohexanecarboxamide] had a pEC50 of at least 6.60. Molecule `COc1ccc([C@H]2CC[C@H](CN(c3cccc(C#Cc4cn[nH]c4)c3)C(=O)[C@H]3CC[C@H](O)CC3)CC2)cc1C` [Compound 4.01, trans-N-(3-((1H-Pyrazol-4-yl)ethynyl)phenyl)-4-hydroxy-N-((trans-4-(4-methoxy-3-methylphenyl)cyclohexyl)methyl)cyclohexanecarboxamide] showed a pEC50 of at least 6.60.

`COc1ccc([C@H]2CC[C@H](CN(c3cccc(C#Cc4cc[nH]n4)c3)C(=O)[C@H]3CC[C@H](O)CC3)CC2)cc1C` [Compound 4.03, trans-N-(3-((1H-Pyrazol-3-yl)ethynyl)phenyl)-4-hydroxy-N-((trans-4-(4-methoxy-3-methylphenyl)cyclohexyl)methyl)cyclohexanecarboxamide] had a pEC50 of at least 6.60. For the molecule `COc1ccc([C@H]2CC[C@H](CN(c3cccc(-c4cnn(C5CC5)c4)c3)C(=O)[C@H]3CC[C@H](O)CC3)CC2)cc1C` [Compound 3, trans-N-(3-(1-Cyclopropyl-1H-pyrazol-4-yl)phenyl)-4-hydroxy-N-((trans-4-(4-methoxy-3-methylphenyl)cyclohexyl)methyl)cyclohexanecarboxamide], the pEC50 is at least 6.60. `COc1ccc([C@H]2CC[C@H](CN(c3cccc(-c4cnn(C5CCC5)c4)c3)C(=O)[C@H]3CC[C@H](O)CC3)CC2)nc1C` [Compound 5.17, trans-N-(3-(1-Cyclobutyl-1H-pyrazol-4-yl)phenyl)-4-hydroxy-N-((trans-4-(5-methoxy-6-methylpyridin-2-yl)cyclohexyl)methyl)cyclohexanecarboxamide] gave a pEC50 of at least 6.60.

Take `COc1ccc([C@H]2CC[C@H](CN(c3cccc(-c4cnn(C(C)C)c4)c3)C(=O)[C@H]3CC[C@H](O)CC3)CC2)cc1C` [Compound 3.02, trans-4-Hydroxy-N-(3-(1-isopropyl-1H-pyrazol-4-yl)phenyl)-N-((trans-4-(4-methoxy-3-methylphenyl)cyclohexyl)methyl)cyclohexanecarboxamide]: the pEC50 is at least 6.60. In the case of `COc1ccc([C@H]2CC[C@H](CN(c3cccc(-c4cnn(CC(F)F)c4)c3)C(=O)[C@H]3CC[C@H](O)CC3)CC2)cc1C` [Compound 2.05, trans-N-(3-(1-(2,2-Difluoroethyl)-1H-pyrazol-4-yl)phenyl)-4-hydroxy-N-((trans-4-(4-methoxy-3-methylphenyl)cyclohexyl)methyl)cyclohexanecarboxamide], the pEC50 is at least 6.60. For the molecule `COc1ccc([C@H]2CC[C@H](CN(c3cccc(-c4cnn(C(C)C)c4)c3)C(=O)[C@H]3CC[C@H](N)CC3)CC2)cc1C` [Compound 7, trans-4-Amino-N-(3-(1-isopropyl-1H-pyrazol-4-yl)phenyl)-N-((trans-4-(4-methoxy-3-methylphenyl)cyclohexyl)methyl)cyclohexanecarboxamide], the pEC50 was at most 6.00.

The molecule `COc1ccc([C@H]2CC[C@H](CN(c3cc(-c4cnn(C5CC5)c4)ccn3)C(=O)[C@H]3CC[C@H](O)CC3)CC2)cc1C` [Compound 2.07, trans-N-(4-(1-Cyclopropyl-1H-pyrazol-4-yl)pyridin-2-yl)-4-hydroxy-N-((trans-4-(4-methoxy-3-methylphenyl)cyclohexyl)methyl)cyclohexanecarboxamide] gave a pEC50 of at least 6.60.

In turn, `COc1ccc([C@H]2CC[C@H](CN(c3cccc(C#Cc4cnn(C)c4)c3)C(=O)[C@H]3CC[C@H](O)CC3)CC2)cc1C` [Compound 4, trans-4-Hydroxy-N-((trans-4-(4-methoxy-3-methylphenyl)cyclohexyl)methyl)-N-(3-((1-methyl-1H-pyrazol-4-yl)ethynyl)phenyl)cyclohexanecarboxamide] gave a pEC50 of at least 6.60. Turning to `COc1ncc([C@H]2CC[C@H](CN(c3cccc(-c4cnn(C5CC5)c4)c3)C(=O)[C@H]3CC[C@H](O)CC3)CC2)cc1C` [Compound 5.12, trans-N-(3-(1-Cyclopropyl-1H-pyrazol-4-yl)phenyl)-4-hydroxy-N-((trans-4-(6-methoxy-5-methylpyridin-3-yl)cyclohexyl)methyl)cyclohexanecarboxamide], the pEC50 is at least 6.60.

Take `O=C([C@H]1CC[C@H](O)CC1)N(C[C@H]1CC[C@H](c2ccc3c(c2)OCO3)CC1)c1cccc(-c2cnn(C3CC3)c2)c1` [Compound 5.06, trans-N-((trans-4-(Benzo[d][1,3]dioxol-5-yl)cyclohexyl)methyl)-N-(3-(1-cyclopropyl-1H-pyrazol-4-yl)phenyl)-4-hydroxycyclohexanecarboxamide]: the pEC50 was at least 6.60.

For `COc1ccc([C@H]2CC[C@H](CN(c3cccc(-c4cnn(CC(C)C)c4)c3)C(=O)[C@H]3CC[C@H](O)CC3)CC2)cc1C` [Compound 3.03, trans-4-Hydroxy-N-(3-(1-isobutyl-1H-pyrazol-4-yl)phenyl)-N-((trans-4-(4-methoxy-3-methylphenyl)cyclohexyl)methyl)cyclohexanecarboxamide], the pEC50 was at least 6.60.

As a reminder, the pEC50 is the negative decadic logarithm of the EC50, by convention in mol/L.
